The IC50 is the concentration at which inhibition is half-maximal.

We go through 1 molecule from article PMC12490239, “Combining BET inhibition with SMAC mimetics restricts tumor growth and triggers immune surveillance in preclinical cancer models” (Cell Reports Medicine, 2025).

Common to all, as to test: cells
Holding throughout (parameters): CellTiter-Glo 2.0 luminescence proliferation/viability assay, single agents, human tumour cell line panel
In general terms: Cellular ATP, detected with luciferase, serves as a proxy for viable cell number.

One experiment relates to AsPC-1. The note with it: Homo sapiens, ASPC1, 96 h; single agent; read-out: IC50 SMACm. Put shortly: (§1)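 Human tumour cell lines were seeded into assay plates and held at 37°C with 5% CO2 for twenty-four hours, then exposed in triplicate to rising concentrations of the SMAC mimetic, from 4.5 nM to 10 μM, with DMSO as control. After 96 h, viability was read as CellTiter-Glo2.0 luminescence to derive single-agent IC50 values.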

The test system of a further experiment is BxPC-3. The note with it: Homo sapiens, BXPC-3, 96 h; single agent; read-out: IC50 SMACm. Put shortly:
as §1

The next experiment deals with COLO-320-HSR. The note with it: Homo sapiens, COLO-320-HSR, 96 h; single agent; read-out: IC50 SMACm. Put shortly: as §1
In a further experiment the test system is COLO94H. The settings on record: 96 h; single agent; read-out: IC50 SMACm. A digest of the protocol:
as §1

The test system of a further experiment is EBC-1. The note with it: Homo sapiens, EBC-1, 96 h; single agent; read-out: IC50 SMACm. A digest of the protocol:
as §1

The subject of the next experiment is GSU. The settings on record: 96 h; single agent; read-out: IC50 SMACm. A digest of the protocol: as §1
Another experiment concerns HCT-15. The settings on record: Homo sapiens, HCT-15, 96 h; single agent; read-out: IC50 SMACm. A digest of the protocol:
as §1

A further experiment deals with HPAF-II. The note with it: Homo sapiens, HPAF-II, 96 h; single agent; read-out: IC50 SMACm. Put shortly:
as §1

Another experiment has as its system JVE207. The settings on record: 96 h; single agent; read-out: IC50 SMACm. Put shortly:
as §1

For another experiment, the system named is KP-4. The note with it: Homo sapiens, KP-4, 96 h; single agent; read-out: IC50 SMACm. Put shortly: as §1
Another experiment has as its system NCI-H2030. The settings on record: Homo sapiens, NCI-H2030, 96 h; single agent; read-out: IC50 SMACm. Put shortly:
as §1

The subject of another experiment is NCI-H23. The note with it: Homo sapiens, NCI-H23, 96 h; single agent; read-out: IC50 SMACm. Put shortly:
as §1

In a further experiment the test system is SNU1460. The settings on record: 96 h; single agent; read-out: IC50 SMACm. Put shortly:
as §1

The next experiment concerns SW48. The settings on record: Homo sapiens, SW48, 96 h; single agent; read-out: IC50 SMACm. A digest of the protocol:
as §1

The test system of another experiment is WiDr. The note with it: Homo sapiens, WiDr, 96 h; single agent; read-out: IC50 SMACm. A digest of the protocol: as §1

Consider `CN[C@@H](C)C(=O)Nc1ccc(-c2c(-c3cccnc3OC)nc3cc(C)ccn23)c(C#Cc2ccc3c(C)nccc3c2)n1` [SMACm, BI 891065], for which the IC50 is greater than 10 µM in the experiment on AsPC-1; 0.53 µM in the experiment on BxPC-3; 2.86 µM in the experiment on COLO-320-HSR; 4.69 µM in the experiment with COLO94H; 2.23 µM with EBC-1; 5.68 µM in the experiment with GSU. Also, the 50% inhibitory concentration (IC50) with HCT-15 was determined as 2.82 µM; in the experiment on HPAF-II, 4.64 µM; with JVE207, 7.2 µM; in the experiment on KP-4, 4.16 µM; in the experiment on NCI-H2030, 4.29 µM; in the experiment with NCI-H23 it was 3.42 µM. For the same molecule, the IC50 with SNU1460 turned out to be 3.15 µM; in the experiment on SW48, 5.9 µM; in the experiment on WiDr it was 4.25 µM.
